According to patent US11180462B2, “Microbiocidal oxadiazole derivatives” (SYNGENTA PARTICIPATIONS AG, priority 2015, dated 2021):

Key:
[1] = test system: Puccinia recondita f. Sp. Tritici; assay: Fungicidal activity against Puccinia recondita f. sp. tritici / wheat / leaf disc preventative (brown rust); type: in vivo; details: foliar, 200 ppm in the applied formulation, wheat leaf segments, preventative, compared to untreated control leaf disks, read-out: disease control
Outline: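 Percent disease control relative to untreated check segments is scored once disease develops, 7 to 9 days after application. Wheat cv. Kanzler segments receive compound spray (200 ppm in formulation) one day before spore inoculation, then sit at 19° C. and 75% rh under 12 h light/12 h dark.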

Phakopsora Pachyrhizi = assay: Fungicidal activity against Phakopsora pachyrhizi / soybean / leaf disc preventative (Asian soybean rust); type: in vivo; details: foliar, 200 ppm in the applied formulation, soybean leaf disks, compared to untreated control leaf disks, read-out: disease control
Method: Leaf disks or leaf segments of various plant species are cut from plants grown in a greenhouse. The cut leaf disks or segments are placed in multiwell plates (24-well format) onto water agar. The leaf disks are sprayed with a test solution before (preventative) or after (curative) inoculation. Compounds to be tested are prepared as DMSO solutions (max. 10 mg/ml) which are diluted to the appropriate concentration with 0.025% Tween20 just before spraying. The inoculated leaf disks or segments are incubated under defined conditions (temperature, relative humidity, light, etc.) according to the respective test system. A single evaluation of disease level is carried out 3 to 14 days after inoculation, depending on the pathosystem. Percent disease control relative to the untreated check leaf disks or segments is then calculated.
Fungicidal Activity Against Phakopsora Pachyrhizi Soybean/Leaf Disc Preventative (Asian Soybean Rust)
Soybean leaf disks are placed on water agar in multiwell plates (24-well format) and sprayed with the formulated test compound diluted in water. One day after application leaf discs are inoculated by spraying a spore suspension on the lower leaf surface. After an incubation period in a climate cabinet of 24-36 hours in darkness at 20° C. and 75% rh leaf disc are kept at 20° C. with 12 h light/day and 75% rh. The activity of a compound is assessed as percent disease control compared to untreated when an appropriate level of disease damage appears in untreated check leaf disks (12 to 14 days after application).
The following compounds at 200 ppm in the applied formulation give at least 80% disease control in this test when compared to untreated control leaf disks under the same conditions, which show extensive disease development.

[2] = test system: Glomerella lagenarium (Colletotrichum lagenarium); assay: Fungicidal activity against Glomerella lagenarium (Colletotrichum lagenarium) liquid culture / cucumber / preventative (anthracnose); type: cell-based; details: Colletotrichum orbiculare; 20 ppm in the applied formulation; liquid culture (PDB), growth inhibition measured photometrically after 3 to 4 days; compared to untreated control; read-out: disease control
Outline: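 Percent activity against the untreated check was derived from photometric growth measurements made 2 to 7 days after conidia in potato dextrose broth were combined with compound at 20 ppm. Cultures were kept dark at 24 °C and 96% humidity.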

| Structure (SMILES) | pest or weed control at 200 ppm [1] [%] | pest or weed control at 200 ppm (Phakopsora Pachyrhizi) [%] | inhibition of growth at 20 ppm [2] [%] |
| --- | --- | --- | --- |
| O=C(c1ccccc1Cl)N(O)Cc1ccc(-c2noc(C(F)(F)F)n2)cc1 [Compound 1.754, 2-chloro-N-hydroxy-N-[[4-[5-(trifluoromethyl)-1,2,4-oxadiazol-3-yl]phenyl]methyl]-benzamide] | ≥ 80 | ≥ 80 | ≥ 80 |
| N#CCC(=O)N(CCO)Cc1ccc(-c2noc(C(F)(F)F)n2)cc1 [Compound 1.728, 2-cyano-N-(2-hydroxyethyl)-N-[[4-[5-(trifluoromethyl)-1,2,4-oxadiazol-3-yl]phenyl]methyl]-acetamide] | ≥ 80 | ≥ 80 |  |
| CC(C)N(Cc1ccc(-c2noc(C(F)(F)F)n2)cc1)C(=O)c1ccccc1Cl [Compound 1.672, 2-chloro-N-isopropyl-N-[[4-[5-(trifluoromethyl)-1,2,4-oxadiazol-3-yl]phenyl]methyl]-benzamide] | ≥ 80 | ≥ 80 | ≥ 80 |
| CCCON(Cc1ccc(-c2noc(C(F)(F)F)n2)cc1)C(=O)C1CCCO1 (stereo not drawn) [Compound 1.312, N-propoxy-N-[[4-[5-(trifluoromethyl)-1,2,4-oxadiazol-3-yl]phenyl]methyl]-tetrahydrofuran-2-carboxamide] | ≥ 80 | ≥ 80 | ≥ 80 |
| CCCC(=O)N(Cc1ccc(-c2noc(C(F)(F)F)n2)cc1)CC1CCCO1 (stereo not drawn) [Compound 1.416, N-(tetrahydrofuran-2-ylmethyl)-N-[[4-[5-(trifluoromethyl)-1,2,4-oxadiazol-3-yl]phenyl]methyl]-butanamide] | ≥ 80 | ≥ 80 | ≥ 80 |
| C#CCOc1ccc(C(=O)N(Cc2ccc(-c3noc(C(F)(F)F)n3)cc2)OC)cc1F [Compound 1.51, 3-fluoro-N-methoxy-4-prop-2-ynoxy-N-[[4-[5-(trifluoromethy)-1,2,4-oxadiazol-3-yl]phenyl]methyl]-benzamide] | ≥ 80 | ≥ 80 | ≥ 80 |
| C#CCN(Cc1ccc(-c2noc(C(F)(F)F)n2)cc1)C(=O)C1CCCCC1 [Compound 1.158, N-prop-2-ynyl-N-[[4-[5-(trifluoromethyl)-1,2,4-oxadiazol-3-yl]phenyl]methyl]-cyclohexane-carboxamide] | ≥ 80 | ≥ 80 | ≥ 80 |
| CON(Cc1ccc(-c2noc(C(F)(F)F)n2)cc1)C(=O)C1(C)CCCCC1 [Compound 1.33, N-methoxy-1-methyl-N-[[4-[5-(trifluoromethyl)-1,2,4-oxadiazol-3-yl]phenyl]methyl]-cyclohexane-carboxamide] | ≥ 80 | ≥ 80 | ≥ 80 |
| CCCCON(Cc1ccc(-c2noc(C(F)(F)F)n2)cc1)C(=O)C(C)OC (stereo not drawn) [Compound 1.647, N-butoxy-2-methoxy-N-[[4-[5-(trifluoromethyl)-1,2,4-oxadiazol-3-yl]phenyl]methyl]-propanamide] | ≥ 80 | ≥ 80 | ≥ 80 |
| CC(C)(C)OC(=O)ON(Cc1ccc(-c2noc(C(F)(F)F)n2)cc1)C(=O)OC(C)(C)C [Compound 2.21, [tert-butoxycarbonyl-[[4-[5-(trifluoromethyl)-1,2,4-oxadiazol-3-yl]phenyl]methyl]-amino]tert-butyl carbonate] | ≥ 80 | ≥ 80 | ≥ 80 |
| C#CCN(Cc1ccc(-c2noc(C(F)(F)F)n2)cc1)C(=O)C1CC1(Cl)Cl (stereo not drawn) [Compound 1.190, 2,2-dichloro-N-prop-2-ynyl-N-[[4-[5-(trifluoromethyl)-1,2,4-oxadiazol-3-yl]phenyl]methyl]-cyclopropane-carboxamide] | ≥ 80 | ≥ 80 | ≥ 80 |
| O=C(CC(F)(F)F)N(CCO)Cc1ccc(-c2noc(C(F)(F)F)n2)cc1 [Compound 1.733, 3,3,3-trifluoro-N-(2-hydroxyethyl)-N-[[4-[5-(trifluoromethyl)-1,2,4-oxadiazol-3-yl]phenyl]methyl]-propanamide] | ≥ 80 | ≥ 80 | ≥ 80 |
| CON(Cc1ccc(-c2noc(C(F)(F)F)n2)c(F)c1F)C(=O)c1ccccc1Cl [Compound 1.576, 2-chloro-N-[[2,3-difluoro-4-[5-(trifluoromethyl)-1,2,4-oxadiazol-3-yl]phenyl]methyl]-N-methoxy-benzamide] | ≥ 80 | ≥ 80 | ≥ 80 |
| C#CCC(NS(=O)(=O)CC)C(=O)N(Cc1ccc(-c2noc(C(F)(F)F)n2)cc1)OC (stereo not drawn) [Compound 1.60, 2-(ethylsulfonylamino)-N-methoxy-N-[[4-[5-(trifluoromethyl)-1,2,4-oxadiazol-3-yl]phenyl]methyl]-pent-4-ynamide] | ≥ 80 | ≥ 80 |  |
| C#CCN(Cc1ccc(-c2noc(C(F)(F)F)n2)cc1)C(=O)C(C)(CC)CC [Compound 1.195, 2-ethyl-2-methyl-N-prop-2-ynyl-N-[[4-[5-(trifluoromethyl)-1,2,4-oxadiazol-3-yl]phenyl]methyl]-butanamide] |  | ≥ 80 | ≥ 80 |
| CCC(C)(CC)C(=O)N(Cc1ccc(-c2noc(C(F)(F)F)n2)cc1)OC [Compound 1.58, 2-ethyl-N-methoxy-2-methyl-N-[[4-[5-(trifluoromethyl)-1,2,4-oxadiazol-3-yl]phenyl]methyl]-butanamide] |  | ≥ 80 | ≥ 80 |
| CCCCON(Cc1ccc(-c2noc(C(F)(F)F)n2)cc1)C(=O)CCOC [Compound 1.637, N-butoxy-3-methoxy-N-[[4-[5-(trifluoromethyl)-1,2,4-oxadiazol-3-yl]phenyl]methyl]-propanamide] |  | ≥ 80 | ≥ 80 |
| CCCCON(Cc1ccc(-c2noc(C(F)(F)F)n2)cc1)C(=O)C1(C)CC1 [Compound 1.639, N-butoxy-1-methyl-N-[[4-[5-(trifluoromethyl)-1,2,4-oxadiazol-3-yl]phenyl]methyl]-cyclopropane-carboxamide] |  | ≥ 80 | ≥ 80 |
| CCON(Cc1ccc(-c2noc(C(F)(F)F)n2)cc1)C(=O)c1ccccc1Cl [Compound 1.616, 2-chloro-N-ethoxy-N-[[4-[5-(trifluoromethyl)-1,2,4-oxadiazol-3-yl]phenyl]methyl]-benzamide] |  | ≥ 80 | ≥ 80 |
| O=C(c1ccccc1Cl)N(Cc1ccc(-c2noc(C(F)(F)F)n2)cc1)CC(F)(F)F [Compound 1.691, 2-chloro-N-(2,2,2-trifluoroethyl)-N-[[4-[5-(trifluoromethyl)-1,2,4-oxadiazol-3-yl]phenyl]methyl]-benzamide] |  | ≥ 80 | ≥ 80 |
| COCCCC(=O)N(Cc1ccc(-c2noc(C(F)(F)F)n2)cc1)CC(F)(F)F [Compound 1.700, 4-methoxy-N-(2,2,2-trifluoroethyl)-N-[[4-[5-(trifluoromethyl)-1,2,4-oxadiazol-3-yl]phenyl]methyl]-butanamide] |  | ≥ 80 | ≥ 80 |
| CCC(COC)C(=O)N(Cc1ccc(-c2noc(C(F)(F)F)n2)cc1)CC(F)(F)F (stereo not drawn) [Compound 1.699, 2-(methoxymethyl)-N-(2,2,2-trifluoroethyl)-N-[[4-[5-(trifluoromethyl)-1,2,4-oxadiazol-3-yl]phenyl]methyl]-butanamide] |  | ≥ 80 | ≥ 80 |
| CCON(Cc1ccc(-c2noc(C(F)(F)F)n2)cc1)C(=O)CC(F)(F)F [Compound 1.630, N-ethoxy-3,3,3-trifluoro-N-[[4-[5-(trifluoromethyl)-1,2,4-oxadiazol-3-yl]phenyl]methyl]-propanamide] |  | ≥ 80 | ≥ 80 |
| O=C(CC(F)(F)F)N(Cc1ccc(-c2noc(C(F)(F)F)n2)cc1)CC1CC1 [Compound 1.220, N-(cyclopropylmethyl)-3,3,3-trifluoro-N-[[4-[5-(trifluoromethyl)-1,2,4-oxadiazol-3-yl]phenyl]methyl]-propanamide] |  | ≥ 80 | ≥ 80 |
